# Columns and labels:
# Type in all cases: cell-based
# STAT1 = STAT1 protein expression (Western blot)
# Procedure: (§1) FIG. 2A is a line graph showing that knockout of STAT1 by CRISPR blocked IFNγ-induced change of drug-tolerant subpopulation size. […] FIG. 2D is a line graph showing homozygous knockout of STAT1 by CRISPR (tolerance model: PC9 treated with 2.5 μM erlotinib). […] Relative intensities were measured from by mass spectrometry experiments. FIG. 2H is a diagram of STAT1-mediated drug tolerance and type I PRMT vulnerability to eliminate drug tolerance.
# FIG. 5C is a line graph showing that STAT1 modulated cancer drug tolerance, and knockdown of STAT1 by siRNA blocked IFNγ-induced change of drug-tolerant subpopulation size. […] FIG. 5E is a bar graph showing that cancer drug treatment (EGFR drugs and other cytotoxic stressors) enhanced STAT1 expression across multiple cell lines. […] Tolerance model for FIG. 5G: PC9 treated with 2.5 μM erlotinib. FIG. 5H presents exemplary data showing differential gene expression in erlotinib-tolerant PC9 cells comparing to parental cells. The top panel of FIG. 5H is a volcano plot in which IRDS genes are shown in black. The bottom panel of FIG. 5H is a line graph showing the accumulative distribution of adjusted p-values of IRDS genes (gray) versus all genes excluding IRDS genes (black). FIG. 5I is a line graph showing the knockdown of STAT1 by siRNA. FIG. 5J is a line graph showing the homozygous knockout of STAT1 by CRISPR. Tolerance model for FIGS. 5I and 5J: PC9 treated with 2.5 μM erlotinib. […] PC9 cells were pretreated with MS023 for one day, followed by co-treatment of erlotinib, and perturbations of protein synthesis or degradation for 16 hours. Cycloheximide (CHX): protein synthesis inhibitor. Bortezomib (Bort): proteasome inhibitor. Ammonium chloride (NH4Cl)): lysosomal function inhibitor. […] FIG. 5P is a bar graph showing type I PRMTs methylate PABP2 at multiple arginine residues. Relative intensities were measured from by mass spectrometry experiments.
# What is the connection between type I PRMTs and IFNγ signaling-modulated drug tolerance? […] Previous work in other systems identified STAT1 or its regulator PIAS1 as direct substrates of type I PRMTs^27, though we could not find evidence for their arginine methylation in our system (data not shown).
# lung cancer cell lines = test: Drug tolerance in lung cancer cell models
# Procedure: FIGS. 3A-3D present exemplary data showing that Type I PRMT inhibition enhanced cancer drug efficacy. […] FIGS. 3B-3D present data showing the correlation between endogenous STAT1 expression levels and the efficacy of type I PRMT inhibition. […] Gray dots indicate cell lines that were tested for the efficacies of type I PRMT inhibition (by MS023).
# (§2) Can type I PRMT inhibition provide a general strategy for reducing drug tolerance and enhance efficacies of SOC drugs? STAT1 signaling can be activated by various sources in tumors, including interferon (IFN)-producing immune cells in the tumor microenvironment, endogenous nucleic acids, and cancer therapeutics (FIG. 2H)^31. […] We also observed efficacy of MS023 with gemcitabine in various pancreatic cancer cell lines (FIG. 6A).
# STAT1 mRNA = STAT1 mRNA level; conditions: FIG. 5M
# Procedure: FIG. 5C is a line graph showing that STAT1 modulated cancer drug tolerance, and knockdown of STAT1 by siRNA blocked IFNγ-induced change of drug-tolerant subpopulation size. […] FIG. 5E is a bar graph showing that cancer drug treatment (EGFR drugs and other cytotoxic stressors) enhanced STAT1 expression across multiple cell lines. […] Tolerance model for FIG. 5G: PC9 treated with 2.5 μM erlotinib. FIG. 5H presents exemplary data showing differential gene expression in erlotinib-tolerant PC9 cells comparing to parental cells. The top panel of FIG. 5H is a volcano plot in which IRDS genes are shown in black. The bottom panel of FIG. 5H is a line graph showing the accumulative distribution of adjusted p-values of IRDS genes (gray) versus all genes excluding IRDS genes (black). FIG. 5I is a line graph showing the knockdown of STAT1 by siRNA. FIG. 5J is a line graph showing the homozygous knockout of STAT1 by CRISPR. Tolerance model for FIGS. 5I and 5J: PC9 treated with 2.5 μM erlotinib. […] PC9 cells were pretreated with MS023 for one day, followed by co-treatment of erlotinib, and perturbations of protein synthesis or degradation for 16 hours. Cycloheximide (CHX): protein synthesis inhibitor. Bortezomib (Bort): proteasome inhibitor. Ammonium chloride (NH4Cl)): lysosomal function inhibitor. […] Relative intensities were measured from by mass spectrometry experiments. […]
# PABP2 = PABP2 arginine methylation by mass spectrometry; conditions: mass spectrometry (FIGS. 2G, 5P, 5Q)
# Procedure: as §1
# (§3) FIG. 5C is a line graph showing that STAT1 modulated cancer drug tolerance, and knockdown of STAT1 by siRNA blocked IFNγ-induced change of drug-tolerant subpopulation size. […] FIG. 5E is a bar graph showing that cancer drug treatment (EGFR drugs and other cytotoxic stressors) enhanced STAT1 expression across multiple cell lines. […] Tolerance model for FIG. 5G: PC9 treated with 2.5 μM erlotinib. FIG. 5H presents exemplary data showing differential gene expression in erlotinib-tolerant PC9 cells comparing to parental cells. The top panel of FIG. 5H is a volcano plot in which IRDS genes are shown in black. The bottom panel of FIG. 5H is a line graph showing the accumulative distribution of adjusted p-values of IRDS genes (gray) versus all genes excluding IRDS genes (black). FIG. 5I is a line graph showing the knockdown of STAT1 by siRNA. […] Relative intensities were measured from by mass spectrometry experiments. […]
# PC9 [1] = test: Drug tolerance assay: surviving fraction of PC9 cells under continuous erlotinib
# From the text: (§4) FIGS. 1A-1F present exemplary data showing that Type I PRMT inhibition reduced IFNγ signaling-modulated drug tolerance. FIG. 1A present a three-step approach aimed at investigating drug tolerance. FIG. 1B is a line graph showing PC9 cell viabilities under six-day treatment of various doses of erlotinib in the context of IFNγ. […] FIG. 1E is a line graph showing that inhibition of type I PRMTs by MS023 reduced cancer drug tolerance specifically in the IFNγ/STAT1 activation context (normalized to DMSO controls in corresponding IFNγ contexts). Tolerance model for FIG. 1E: PC9 treated with 2.5 μM erlotinib for six days. […] Tolerance model: PC9 treated with 2.5 μM erlotinib.
# FIGS. 4A-4F present exemplary data showing that Type I PRMT inhibition reduces IFNγ signaling-modulated drug tolerance. FIG. 4A is a line graph showing the pro-survival effects of IFNγ in a variety of cell types with the cytotoxic inducers. Six-day tolerance assay in lung cancer cells was performed under 2.5 μM erlotinib or 50 μM carboplatin. FIG. 4B is a line graph showing PC9 cells co-treated with IFNγ and cytotoxic stressors (EGFR inhibitor Gefitinib, PARP inhibitor olaparib, death ligand TRAIL, procaspase-3 activator PAC-1), and cell viabilities were measured by Cell TiterGlo after six days. FIG. 4C is a bar-graph showing PRMT1 knockdown efficiency measured by qPCR after two days of siRNA transfection. FIG. 4D is a line graph showing that inhibition of type I PRMTs by MS023 reduced cancer drug tolerance specifically in the IFNγ/STAT1 activation context (normalized to DMSO control in (−) IFNγ context). Tolerance model for FIG. 4D: PC9 treated with 2.5 μM erlotinib for six days. FIG. 4E is a line graph showing that inhibition of type I PRMTs by GSK3368715 reduced cancer drug tolerance specifically in the IFNγ/STAT1 activation context (normalized to DMSO controls in corresponding IFNγ contexts). FIG. 4F is a line graph line graphs showing that inhibition of type I PRMTs by GSK3368715 reduced cancer drug tolerance specifically in the IFNγ/STAT1 activation context (normalized to DMSO control in (−) IFNγ context). Tolerance model for FIGS. 4E and 4F: PC9 treated with 2.5 μM erlotinib for six days.
# To investigate drug tolerance, we undertook a three-step approach (FIG. 1A). First, we established reproducible assays to monitor small subpopulations of cancer cells that survive sustained SOC drug treatment. We initially selected the well-established drug-tolerance model provided by the EGFR-mutant lung cancer cell line PC9 and EGFR inhibitor erlotinib^1,2,6. The effect of perturbations to drug tolerance was assessed by quantifying changes to the fraction of the small subpopulation of surviving (drug-tolerant) cells after approximately one week of continuous drug treatment.
# [2] = system: PC9 STAT1 knockdown / homozygous knockout cells; test: Drug tolerance assay in PC9 with STAT1 knockdown or knockout; conditions: PC9 treated with 2.5 μM erlotinib
# Procedure: as §1, §3
# [3] = system: solid tumors with wild type splicing factors (e.g. SRSF2, SF3B1, U2AF1); test: Proliferation of solid tumors with wild type splicing factors; conditions: FIG. 9
# PD-L1 [4] = test: PD-L1 expression in MIAPACA2; conditions: pancreatic cancer cell MIAPACA2 (FIG. 12B)
# PD-L1 [5] = test: PD-L1 expression in MGH119; conditions: lung cancer cell MGH119 (FIG. 12A)
# PC9 [6] = test: Emergence of drug-tolerant persisters, two-month co-treatment with erlotinib; conditions: IFNγ stimulation, PC9, 2.5 μM erlotinib (FIG. 1F)
# From the text: as §4
# Third, we searched for perturbations that reduce IFNγ-stimulated drug tolerance within a collection of compounds of known biological functions and targets. […] Thus, type I PRMT inhibition is a vulnerability of IFNγ signaling-stimulated drug tolerance.
# [7] = system: pancreatic cancer cell lines; test: Drug tolerance in gemcitabine-treated pancreatic cancer cell lines; conditions: FIG. 6A
# From the text: FIGS. 6A-6E present exemplary data showing that Type I PRMT inhibition enhances cancer drug efficacy.
# as §2
# [8] = system: AKT, ERK and STAT3 pathway; test: EGFR bypass signaling (AKT, ERK and STAT3 pathway); conditions: FIG. 5A
molecule,measurement,setting,value
C#Cc1cccc(Nc2ncnc3cc(OCCOC)c(OCCOC)cc23)c1 [erlotinib],total STAT1 as opposed to P-STAT1,"STAT1; combined with IFNγ, PC9 cells (FIG. 5D)",synergizes with IFNγ to increase total STAT1
CC(C)Oc1ccc(-c2c[nH]cc2CN(C)CCN)cc1 [MS023],drug tolerance in osimertinib-treated lung cancers,"lung cancer cell lines; EGFR mutant cell lines with T790M resistance mutation, IFNγ stimulation (FIG. 3A middle)",reduced drug tolerance
same,drug tolerance in carboplatin-treated lung cancers,"lung cancer cell lines; EGFR wild type cell lines, IFNγ stimulation (FIG. 3A bottom)",reduced drug tolerance
same,IC50 on reducing drug tolerance,"lung cancer cell lines; lung (erlotinib, osimertinib, carboplatin) and pancreatic (gemcitabine) cancer cell models, IFNγ stimulation",sub- to low-micromolar range
same,drug tolerance in erlotinib-treated lung cancers,"lung cancer cell lines; multiple EGFR mutant cell lines, IFNγ stimulation (FIG. 3A top)",reduced drug tolerance
same,STAT1 mRNA,STAT1 mRNA,did not reduce STAT1 mRNA
same,dimethylation of PABP2 arginine residues,PABP2,reduced the detected dimethylation of PABP2
same,"effect on reducing drug tolerance, dependence on IFNγ","PC9 [1]; PC9 treated with 2.5 μM erlotinib for six days, with or without IFNγ (FIGS. 1E, 4D-4F)",only observed in the presence of IFNγ stimulation
same,drug tolerance in the PC9/erlotinib model system,PC9 [1]; across a wide range of IFNγ concentrations (FIG. 1C),reduced drug tolerance
same,efficacy on drug tolerance in STAT1 homozygous knockout cells,"[2]; CRISPR STAT1 knockout (FIGS. 2D, 5J)",no efficacy
same,efficacy on drug tolerance after STAT1 knockdown,[2]; STAT1 siRNA (FIG. 5I),dramatically compromised
same,proliferation,[3],reduced the proliferation
same,expression of immune checkpoint protein PD-L1,PD-L1 [4],reduced the expression
same,expression of immune checkpoint protein PD-L1,PD-L1 [5],reduced the expression
same,expansion of drug-tolerant cells (persisters),PC9 [6],durably reduced the expansion of drug-tolerant cells
same,drug tolerance in gemcitabine-treated pancreatic cancers,[7],reduced drug tolerance
same,mechanism of the reduction of STAT1 expression,"STAT1; PC9 pretreated one day, then erlotinib plus cycloheximide, bortezomib or NH4Cl for 16 hours (FIG. 5N)",alteration in protein synthesis
same,total STAT1 protein level,"STAT1; independent of IFNγ or erlotinib, multiple cancer cell lines (FIGS. 2E, 5K, 5L)",downregulated total STAT1 protein level
"IFNγ: dimerized soluble cytokine, the only member of the type II class of interferons (protein, UniProt P01579 24-161, looked up) Interferon gamma: QDPYVKEAENLKKYFNAGHSDVADNGTLFLGILKNWKEESDRKIMQSQIVSFYFKLFKNFKDDQSIQKSVETIKEDMNVKFFNSNKKKRDDFEKLTNYSVTDLNVQRKAIHELIQVMAELSPAAKTGKRKRSQMLFRG",drug tolerance at relatively low doses,"PC9 [1]; PC9/erlotinib and other models of tolerance (FIGS. 1B, 4A, 4B)",increase tolerance
same,drug tolerance at relatively high doses,"PC9 [1]; PC9/erlotinib, six-day treatment (FIG. 1B)",decreases drug tolerance
same,reactivation of major EGFR bypass signaling,[8],did not observe the reactivation
same,"STAT1 signaling (phosphorylation of STAT1, IRF1 transcription, STAT1 upregulation)",STAT1; PC9-erlotinib model system (FIG. 5B),activates STAT1 signaling

# From US20240299356A1, “DEVELOPMENT OF PRMT-TARGETING THERAPY TO ENHANCE EGFR-TARGETING DRUG EFFICACY IN NSCLC” (The Regents of the University of California, priority 2021, published 2024)
